{
  "source": "patent US9107852B2",
  "about": "“Uses of agonists of delta opioid receptor in cosmetic and dermocosmetic field” (Induchem Holding AG, priority 2012, dated 2015)",
  "key": {"[1]": {"test_system": "opioid receptor delta (DOR)", "assay": "Scoring of DOR1 expression in RHE stimulated with cytokines", "format": "cell-based, human", "details": "JAK inhibitor I tested at 10 μM", "procedure": "In the present study, the effects of a peptide (YPLDLF, SEQ ID No 1) on the expression of opioid receptor delta (DOR) were researched on a reconstructed human epidermis (RHE) model under basal or stimulated conditions. More precisely, the RHE were stimulated by a mix of cytokines (IL-17+OSM+TNF-α) able to induce a strong inflammatory profile and a psoriatic phenotype in keratinocytes.\nReconstructed human epidermis (RHE) of 11 days old was prepared according to a derived method described by Poumay et al. (2004). These RHE were cultivated at 37° C. and 5% of CO2 in a specific maintenance medium.\nThe RHE treated under basal conditions were placed in assay medium containing or not (non-stimulated control) the peptide solutions and incubated for 54 hours. For inflammatory conditions, the RHE were placed in assay medium containing or not (stimulated control) the peptide solutions or the reference […] at 10 μM) and pre-incubated for 6 hours. The RHE were then stimulated with a mix of cytokines (IL-17+OSM+TNF-α at 3 ng/ml) and incubated for 48 hours. All experimental conditions were performed in n=3.\nAt the end of incubation, the supernatants were collected and the RHE were washed in phosphate buffered saline solution (PBS) for immunohistofluorescence analysis. […]"}, "[2]": {"test_system": "opioid receptor delta (DOR)", "assay": "Expression of DOR in epidermis, tissue microarray immunohistochemical labeling", "format": "cell-based, human", "details": "RHE treated with PMA at 2 μg, compared to non-treated RHE", "procedure": "The protein expression of the opioid receptor delta (DOR) was analyzed using a “tissue microarray” (TMA) composed of numerous skin-related cellular models in order to identify the best models for further studies.\nFormaldehyde-fixed tissues were dehydrated in multiple baths with increasing concentration of ethanol and then embedded in “Paraplast X-tra” paraffin. The transversal sections were carried out using a microtome (5 μm thickness) and kept at room temperature until staining.\nThe sections were deparaffinized then the antigenic sites were retrieved using specific buffers (pH6 and pH9). The sections were then washed and incubated with hydrogen peroxide. After an additional washing step, the sections were incubated with the primary antibody (anti-DOR). […] After peroxidase-conjugated streptavidine and peroxidase substrate addition, nuclei were counter-stained with a solution of haematoxylin. The slices were washed in ultra-pure water and mounted in aqueous medium.\nSections were observed using a NIKON E400 microscope. Images were captured with a NIKON DS-Ri1 and processed with NIS-Elements 3.10 software."}, "delta2 opioid receptor": {"target": "T1, delta2 opioid receptor (Mus musculus, UniProt P32300)", "T1 construct": "host or cells: unnamed cells 'bearing the delta2 opioid receptor'", "T1 sequence (P32300 whole entry)": "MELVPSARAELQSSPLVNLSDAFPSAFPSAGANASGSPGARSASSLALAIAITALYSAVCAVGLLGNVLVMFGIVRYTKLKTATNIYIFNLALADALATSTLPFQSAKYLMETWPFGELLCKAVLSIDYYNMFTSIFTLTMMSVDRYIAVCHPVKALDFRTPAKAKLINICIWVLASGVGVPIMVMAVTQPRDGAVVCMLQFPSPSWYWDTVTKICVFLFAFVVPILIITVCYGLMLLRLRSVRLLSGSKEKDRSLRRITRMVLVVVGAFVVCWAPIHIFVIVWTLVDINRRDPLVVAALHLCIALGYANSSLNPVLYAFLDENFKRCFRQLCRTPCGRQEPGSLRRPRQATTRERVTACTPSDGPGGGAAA", "assay": "Agonist effect at the delta2 opioid receptor (DOP), cell impedance", "format": "cell-based", "details": "percent of control specific agonist response (DPDPE)", "procedure": "Frozen spinach leaves were thawed and disrupted in fine particles a blender. This juice was further treated with ultrasounds to disrupt cells and proteins were recovered by acidic precipitation. These proteins were then digested by several enzymes, including pepsin and papain. The hydrolysate was purified (ultrafiltration), fractionated and stored before testing. Meanwhile, synthetic peptides were ordered from a manufacturer. The peptides and the hydrolysates were tested on cells bearing the delta2 opioid receptor and cell impedance was measured to evaluate the binding activity of the tested compounds (Law and Loh, 1993).\nThe EC50 values (concentration producing a half-maximal specific response) and IC50 values (concentration causing a half-maximal inhibition of the control specific agonist response) were determined by non-linear regression analysis of the concentration-response curves generated with mean replicate values using Hill equation curve fitting (Y=D+[(A D)/(1+(C/C50)nH)], where Y=specific response, D=minimum specific response, A=maximum specific response, C=compound concentration, and C50=EC50 or IC50, and nH=slope factor)."}},
  "data": [
    {"compound": "JAK inhibitor I [reference compound]", "values": [
      {"measurement": "inhibitory effect of the cytokine mix on OPRD1 expression", "setting": "[1]", "result": "reversed"}
    ]},
    {"compound": "CCCCCCCCCCCCCC(=O)O[C@@H]1[C@@H](C)[C@@]2(O)[C@@H](C=C(CO)C[C@]3(O)C(=O)C(C)=C[C@@H]23)[C@@H]2C(C)(C)[C@]12OC(C)=O", "note": "[PMA, Phorbol myristate acetate]", "values": [
      {"measurement": "expression of DOR", "setting": "[2]", "result": "DOR was decreased after Phorbol myristate"}
    ]},
    {"compound": "D-Penicillamine(2,5)-enkephalin [DPDPE, reference compound]", "values": [
      {"measurement": "A (Hill curve fit parameter)", "setting": "delta2 opioid receptor", "result": 0.0},
      {"measurement": "D (Hill curve fit parameter)", "setting": "delta2 opioid receptor", "result": 95.8}
    ]}
  ]
}
